In ChEMBL document CHEMBL5113392, “Novel hybrid pyrrolidinedione-thiazolidinones as potential anticancer agents: Synthesis and biological evaluation” (Eur J Med Chem, 2022):
Calls of active or inactive are those of the source. The rule behind the calls is not given here.

Legend:
[1] = test system: SW-620; assay: Anticancer activity against human SW-620 cells assessed as lethality incubated for 48 hrs by SRB assay; assay type: functional; conditions: read-out: LC50 (the source's name)
[2] = test system: SF-539; assay: Anticancer activity against human SF-539 cells assessed as growth inhibition incubated for 48 hrs by SRB assay; assay type: functional
[3] = test system: BT-549; assay: Anticancer activity against human BT-549 cells assessed as total growth inhibition incubated for 48 hrs by SRB assay; assay type: functional
[4] = test system: ACHN; assay: Anticancer activity against human ACHN cells assessed as total growth inhibition incubated for 48 hrs by SRB assay; assay type: functional
[5] = test system: SK-MEL-28; assay: Anticancer activity against human SK-MEL-28 cells assessed as growth inhibition incubated for 48 hrs by SRB assay; assay type: functional
[6] = test system: Malme-3M; assay: Anticancer activity against human Malme-3M cells assessed as growth inhibition incubated for 48 hrs by SRB assay; assay type: functional
[7] = test system: HCT-116; assay: Anticancer activity against human HCT-116 cells assessed as total growth inhibition incubated for 48 hrs by SRB assay; assay type: functional
[8] = test system: KM12; assay: Anticancer activity against human KM12 cells assessed as lethality incubated for 48 hrs by SRB assay; assay type: functional; conditions: read-out: LC50 (the source's name)
[9] = test system: SNB-19; assay: Anticancer activity against human SNB-19 cells assessed as total growth inhibition incubated for 48 hrs by SRB assay; assay type: functional
[10] = test system: SF-268; assay: Anticancer activity against human SF-268 cells assessed as total growth inhibition incubated for 48 hrs by SRB assay; assay type: functional
[11] = test system: MDA-MB-231; assay: Anticancer activity against human MDA-MB-231 cells assessed as total growth inhibition incubated for 48 hrs by SRB assay; assay type: functional
[12] = test system: Jurkat; assay: Induction of morphological changes in human Jurkat cells assessed as change in cell shape incubated for 24 hrs by Hoechst 33258 and propidium iodide staining based fluorescence microscopy; assay type: functional
[13] = test system: SR; assay: Anticancer activity against human SR cells assessed as growth inhibition incubated for 48 hrs by SRB assay; assay type: functional
[14] = test system: HCC 2998; assay: Anticancer activity against human HCC 2998 cells assessed as inhibition of cell growth at 10 uM incubated for 48 hrs by SRB assay; assay type: functional; conditions: HCC 2998, 48 h, values are per cent of control
[15] = test system: Salmon testes DNA; assay: Displacement of methyl green from salmon sperm DNA at 1 uM measured after 2 hrs by fluorescence plate reader method relative to control; assay type: nucleic-acid assay; conditions: Salmo salar
[16] = test system: M14; assay: Anticancer activity against human M14 cells assessed as growth inhibition incubated for 48 hrs by SRB assay; assay type: functional
[17] = test system: MCF7; assay: Anticancer activity against human MCF7 cells assessed as growth inhibition incubated for 48 hrs by SRB assay; assay type: functional
[18] = test system: HOP-92; assay: Anticancer activity against human HOP-92 cells assessed as growth inhibition incubated for 48 hrs by SRB assay; assay type: functional
[19] = Selectivity index, ratio of GI50 for human HaCaT cells to GI50 for human MDA-MB-231 cells; assay type: toxicity; conditions: HaCaT cells versus MDA-MB-231 cells, read-out: RatioGI50
[20] = test system: NCI-H522; assay: Anticancer activity against human NCI-H522 cells assessed as total growth inhibition incubated for 48 hrs by SRB assay; assay type: functional
[21] = test system: Salmon testes DNA; assay: Displacement of methyl green from salmon sperm DNA at 10 uM measured after 2 hrs by fluorescence plate reader method relative to control; assay type: nucleic-acid assay; conditions: Salmo salar
[22] = test system: SK-MEL-5; assay: Anticancer activity against human SK-MEL-5 cells assessed as growth inhibition incubated for 48 hrs by SRB assay; assay type: functional
[23] = test system: TK-10; assay: Anticancer activity against human TK-10 cells assessed as lethality incubated for 48 hrs by SRB assay; assay type: functional; conditions: read-out: LC50 (the source's name)
[24] = test system: HL-60; assay: Anticancer activity against human HL-60 cells assessed as total growth inhibition incubated for 48 hrs by SRB assay; assay type: functional
[25] = test system: SK-MEL-2; assay: Anticancer activity against human SK-MEL-2 cells assessed as growth inhibition incubated for 48 hrs by SRB assay; assay type: functional
[26] = test system: Hs-578T; assay: Anticancer activity against human Hs-578T cells assessed as growth inhibition incubated for 48 hrs by SRB assay; assay type: functional
[27] = test system: SF-268; assay: Anticancer activity against human SF-268 cells assessed as lethality incubated for 48 hrs by SRB assay; assay type: functional; conditions: read-out: LC50 (the source's name)
[28] = test system: SK-OV-3; assay: Anticancer activity against human SK-OV-3 cells assessed as cell growth inhibition incubated for 72 hrs by MTT assay; assay type: functional
[29] = test system: MDA-MB-231; assay: Anticancer activity against human MDA-MB-231 cells assessed as lethality incubated for 48 hrs by SRB assay; assay type: functional; conditions: read-out: LC50 (the source's name)
[30] = test system: Lymphocyte; assay: Induction of morphological changes in mitogen activated human peripheral blood lymphocytes assessed as increase in necrotic cells incubated for 24 hrs by Hoechst 33258 and propidium iodide staining based fluorescence microscopy; assay type: toxicity, cell-based
[31] = test system: RXF 393; assay: Anticancer activity against human RXF 393 cells assessed as growth inhibition incubated for 48 hrs by SRB assay; assay type: functional
[32] = test system: MDA-MB-468; assay: Anticancer activity against human MDA-MB-468 cells assessed as growth inhibition incubated for 48 hrs by SRB assay; assay type: functional
[33] = test system: SN12C; assay: Anticancer activity against human SN12C cells assessed as growth inhibition incubated for 48 hrs by SRB assay; assay type: functional
[34] = test system: NCI-H460; assay: Anticancer activity against human NCI-H460 cells assessed as lethality incubated for 48 hrs by SRB assay; assay type: functional; conditions: read-out: LC50 (the source's name)
[35] = test system: SN12C; assay: Anticancer activity against human SN12C cells assessed as lethality incubated for 48 hrs by SRB assay; assay type: functional; conditions: read-out: LC50 (the source's name)
[36] = Selectivity index, ratio of GI50 for human HaCaT cells to GI50 for human HCT116-p53-null cells; assay type: toxicity; conditions: HaCaT cells versus HCT116-p53-null cells, read-out: RatioGI50
[37] = test system: MDA-MB-435; assay: Anticancer activity against human MDA-MB-435 cells assessed as growth inhibition incubated for 48 hrs by SRB assay; assay type: functional
[38] = test system: DU-145; assay: Anticancer activity against human DU-145 cells assessed as growth inhibition incubated for 48 hrs by SRB assay; assay type: functional
[39] = Selectivity index, ratio of GI50 for human HaCaT cells to GI50 for human MCF7 cells; assay type: toxicity; conditions: HaCaT cells versus MCF7 cells, read-out: RatioGI50
[40] = test system: NCI/ADR-RES; assay: Anticancer activity against human NCI/ADR-RES cells assessed as growth inhibition incubated for 48 hrs by SRB assay; assay type: functional
[41] = test system: BT-549; assay: Anticancer activity against human BT-549 cells assessed as lethality incubated for 48 hrs by SRB assay; assay type: functional; conditions: read-out: LC50 (the source's name)
[42] = test system: UACC-257; assay: Anticancer activity against human UACC-257 cells assessed as growth inhibition incubated for 48 hrs by SRB assay; assay type: functional
[43] = test system: MDA-MB-468; assay: Anticancer activity against human MDA-MB-468 cells assessed as lethality incubated for 48 hrs by SRB assay; assay type: functional; conditions: read-out: LC50 (the source's name)
[44] = test system: RXF 393; assay: Anticancer activity against human RXF 393 cells assessed as inhibition of cell growth at 10 uM incubated for 48 hrs by SRB assay; assay type: functional; conditions: RXF 393, 48 h, values are per cent of control
[45] = test system: HL-60; assay: Anticancer activity against human HL-60 cells assessed as growth inhibition incubated for 48 hrs by SRB assay; assay type: functional
[46] = test system: SK-MEL-2; assay: Anticancer activity against human SK-MEL-2 cells assessed as lethality incubated for 48 hrs by SRB assay; assay type: functional; conditions: read-out: LC50 (the source's name)
[47] = test system: NCI-H226; assay: Anticancer activity against human NCI-H226 cells assessed as growth inhibition incubated for 48 hrs by SRB assay; assay type: functional

## O=C1CC(N2C(=O)/C(=C/C(Cl)=C/c3ccc([N+](=O)[O-])cc3)SC2=S)C(=O)N1c1ccc(O)cc1 (centres undefined)
[1]
  CC50: 6.3 µM
[2]
  GI50: 1.72 µM
[3]
  TGI: 4.21 µM
[4]
  TGI: 2.76 µM
[5]
  GI50: 1.95 µM
[6]
  GI50: 2.31 µM
[7]
  TGI: 2.14 µM
[8]
  CC50: 15.8 µM
[9]
  TGI: 3.47 µM
[10]
  TGI: 6.99 µM
[11]
  TGI: 5.06 µM
[12]
  Activity: Active
[13]
  GI50: 0.394 µM
[14]
  growth, % of control at 10 µM: -81.6%
[15]
  Activity: 1.4%
[16]
  GI50: 1.46 µM
[17]
  GI50: 1.21 µM
[18]
  GI50: 1.62 µM
[19]
  selectivity ratio: 11.9
[20]
  TGI: 4.23 µM
[21]
  Activity: 6.2%
[22]
  GI50: 1.92 µM
[23]
  CC50: 7.46 µM
[24]
  TGI: 9.57 µM
[25]
  GI50: 2.74 µM
[26]
  GI50: 2.8 µM
[27]
  CC50: 47.1 µM
[28]
  GI50: > 100 µM
[29]
  CC50: 15.9 µM
[30]
  Activity: Toxic
[31]
  GI50: 1.53 µM
[32]
  GI50: 1.87 µM
[33]
  GI50: 1.6 µM
[34]
  CC50: 39.5 µM
[35]
  CC50: 24.6 µM
[36]
  selectivity ratio: 13
[37]
  GI50: 2.01 µM
[38]
  GI50: 1.72 µM
[39]
  selectivity ratio: 18.4
[40]
  GI50: 2.13 µM
[41]
  CC50: 8.72 µM
[42]
  GI50: 2.48 µM
[43]
  CC50: > 100 µM
[44]
  growth, % of control at 10 µM: -70.5%
[45]
  GI50: 2.44 µM
[46]
  CC50: 54.3 µM
[47]
  GI50: 2.41 µM

## O=C1CC(N2C(=O)/C(=C/C(Cl)=C/c3ccc([N+](=O)[O-])cc3)SC2=S)C(=O)N1c1ccc(Cl)cc1 (centres undefined)
[1]
  CC50: > 100 µM
[2]
  GI50: 1.69 µM
[3]
  TGI: 3.74 µM
[4]
  TGI: 3.48 µM
[5]
  GI50: 1.71 µM
[6]
  GI50: 3.09 µM
[7]
  TGI: 3.04 µM
[8]
  CC50: > 100 µM
[9]
  TGI: 2.97 µM
[10]
  TGI: > 100 µM
[11]
  TGI: 47.8 µM
[12]
  Activity: Active
[13]
  GI50: 0.544 µM
[14]
  growth, % of control at 10 µM: -22.9%
[15]
  Activity: 4.3%
[16]
  GI50: 2.11 µM
[17]
  GI50: 1.38 µM
[18]
  GI50: 2.58 µM
[19]
  selectivity ratio: 15.5
[20]
  TGI: 4.36 µM
[21]
  Activity: 7.9%
[22]
  GI50: 1.95 µM
[23]
  CC50: > 100 µM
[24]
  TGI: 8.86 µM
[25]
  GI50: 3.12 µM
[26]
  GI50: 1.8 µM
[27]
  CC50: > 100 µM
[28]
  GI50: 65.9 µM
[29]
  CC50: > 100 µM
[30]
  Activity: Toxic
[31]
  GI50: 1.26 µM
[32]
  GI50: 1.33 µM
[33]
  GI50: 1.69 µM
[34]
  CC50: > 100 µM
[35]
  CC50: > 100 µM
[36]
  selectivity ratio: 10.7
[37]
  GI50: 1.65 µM
[38]
  GI50: 2.09 µM
[39]
  selectivity ratio: 12.6
[40]
  GI50: 1.01 µM
[41]
  CC50: 8 µM
[42]
  GI50: 2.92 µM
[43]
  CC50: 7.22 µM
[44]
  growth, % of control at 10 µM: -64.1%
[45]
  GI50: 1.45 µM
[46]
  CC50: > 100 µM
[47]
  GI50: 1.92 µM
